The record followed here is PubChem BioAssay (NCI).

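Method: 48-hour compound exposure of cells in 96-well plates, five concentrations, linear interpolation of endpoints. Abbreviation: GI50, concentration required for 50% inhibition of growth. At the TGI there is no net growth.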

Test systems include MDA-MB-435; SF-539 CNS; NCI-H23 lung; SNB-19 CNS; OVCAR-3 ovarian; MOLT-4 leukemia; M14 melanoma; CAKI-1 renal; SF-295 CNS; CCRF-CEM leukemia.
Holding throughout (assay): inhibition of tumour cell growth, NCI panel, 48 h

For `COc1cc(C2CC(c3cccc(Nc4ccncc4)c3)=NN2c2cc(Cl)cc(Cl)c2)cc(OC)c1OC` (stereo unspecified), the GI50 with MDA-MB-435 is 1.61 µM; in the experiment on SF-539 CNS, 1.72 µM; in the experiment on NCI-H23 lung, 1.79 µM; with SNB-19 CNS it was 1.61 µM; in the experiment on OVCAR-3 ovarian, 1.73 µM; in the experiment with MOLT-4 leukemia it was 1.53 µM. In addition, the GI50 was 1.75 µM in the experiment on M14 melanoma and 1.53 µM with CAKI-1 renal. Moreover, the TGI was determined as 3.15 µM in the experiment with MDA-MB-435; 3.2 µM in the experiment on SF-539 CNS; 3.38 µM in the experiment with NCI-H23 lung; 3.02 µM in the experiment with SNB-19 CNS; 3.21 µM with OVCAR-3 ovarian; 3.57 µM in the experiment on MOLT-4 leukemia. The TGI in the experiment on M14 melanoma was 3.36 µM; in the experiment on CAKI-1 renal it was 2.91 µM.

With `COc1cc2cc(Oc3ccc(NC(=O)Nc4ccc(F)c(C(F)(F)F)c4)cc3)c(C)nc2cc1OCCN1CCCCC1`, the GI50 in the experiment with MDA-MB-435 is 1.74 µM; in the experiment with SF-539 CNS, 1.68 µM; in the experiment on SNB-19 CNS it was 1.76 µM; in the experiment with OVCAR-3 ovarian it was 1.87 µM; in the experiment with M14 melanoma, 1.81 µM; with SF-295 CNS, 1.8 µM. Moreover, the GI50 in the experiment with CCRF-CEM leukemia is 1.57 µM; in the experiment with CAKI-1 renal it was 1.47 µM. Further, the TGI in the experiment with MDA-MB-435 came to 3.14 µM; in the experiment with SF-539 CNS, 3.08 µM; in the experiment on SNB-19 CNS, 3.29 µM; in the experiment with OVCAR-3 ovarian, 3.44 µM; with M14 melanoma, 3.53 µM; with SF-295 CNS it was 3.29 µM. For the same compound, the TGI in the experiment with CCRF-CEM leukemia came out at 4.01 µM; in the experiment with CAKI-1 renal it was 2.78 µM.

For `CCOC(=O)c1ncoc1[C@H]1COC(C)(C)O1`, the TGI with SF-539 CNS, with NCI-H23 lung, in the experiment on SNB-19 CNS, in the experiment on OVCAR-3 ovarian, with MOLT-4 leukemia and with M14 melanoma was greater than 100 µM throughout. Further, the TGI in the experiment with SF-295 CNS, with CCRF-CEM leukemia and with CAKI-1 renal was greater than 100 µM throughout.

Take `O=C(c1ccccc1)c1nn(-c2ccc(Cl)cc2)c2nc3nc(-c4ccccc4)cc(=O)n3nc12`: the GI50 in the experiment on MDA-MB-435 was 6.65 µM; in the experiment with SF-539 CNS, 22.4 µM; with NCI-H23 lung, 65.6 µM; in the experiment on SNB-19 CNS it was 39.9 µM; in the experiment on OVCAR-3 ovarian it was 24.5 µM; in the experiment on MOLT-4 leukemia, 37.9 µM. For the same compound, the GI50 in the experiment on M14 melanoma was 31.6 µM; in the experiment with SF-295 CNS, 23.5 µM; in the experiment on CCRF-CEM leukemia, 3.58 µM; in the experiment on CAKI-1 renal it was greater than 100 µM. The TGI was greater than 100 µM in the experiment with MDA-MB-435; 45.4 µM in the experiment on SF-539 CNS; greater than 100 µM in the experiment with NCI-H23 lung; greater than 100 µM in the experiment on SNB-19 CNS; 77.8 µM in the experiment on OVCAR-3 ovarian; greater than 100 µM in the experiment on MOLT-4 leukemia. The TGI is greater than 100 µM in the experiment with M14 melanoma, 63.1 µM in the experiment on SF-295 CNS, greater than 100 µM in the experiment with CCRF-CEM leukemia and greater than 100 µM with CAKI-1 renal.
